The text below walks through data of patent US20230049952A1, “METHODS AND COMPOUNDS FOR RESTORING MUTANT P53 FUNCTION” (PMV Pharmaceuticals, Inc., priority 2020, published 2023).

This data set has as its target BSEP (Homo sapiens, UniProt O95342). As to the kind of experiment: BSEP inhibition: TCA uptake into BSEP-expressing vesicles. Type of data set: in vitro ADME. The following applies: 10 μM test article. Here is the method:
An assay to measure BSEP-mediated TCA uptake into inside-out BSEP-expressing vesicles was used. […] The reaction was initiated by adding 5 mM ATP (adenosine 5′-triphosphate) as the energy source for BSEP. Negative controls were run in parallel, using 5 mM AMP (adenosine 5′-monophosphate) in place of ATP. The reactions were carried out in 96-well plates incubated in a humidified incubator (37° C. 5% CO2) for 30 minutes. After incubation, the vesicle-associated TCA and free TCA were separated by rapid filtration through a glass-fiber filter plate under vacuum.
All samples were assayed by liquid chromatography-tandem mass spectrometry (LC-MS/MS) using electrospray ionization. Liquid Chromatography was performed using a Thermo BDS Hypersil C18 30×2.1 mm, 3 μm, with guard column. […] The Aqueous Reservoir (A) was 90% water, 10% buffer. The Organic Reservoir (B) was 90% acetonitrile, 10% buffer. The Flow Rate was 700 μL/minute. The Total Run Time for the liquid chromatography was 2.5 minutes. The Autosampler was 20 μL injection volume. The Autosampler Wash was water/methanol/2-propanol: 1/1/1; with 0.2% formic acid. Mass Spectrometry was performed on the PE SCIEX API 4000 instrument. The interface was Turbo Ionspray. The mode was Multiple reaction monitoring. The method was performed over 2.5 minute duration.

Where [1] appears, read: 1 μM TCA, BSEP vesicles, 30 minutes.

Sequence of BSEP (O95342 whole entry, species assumed): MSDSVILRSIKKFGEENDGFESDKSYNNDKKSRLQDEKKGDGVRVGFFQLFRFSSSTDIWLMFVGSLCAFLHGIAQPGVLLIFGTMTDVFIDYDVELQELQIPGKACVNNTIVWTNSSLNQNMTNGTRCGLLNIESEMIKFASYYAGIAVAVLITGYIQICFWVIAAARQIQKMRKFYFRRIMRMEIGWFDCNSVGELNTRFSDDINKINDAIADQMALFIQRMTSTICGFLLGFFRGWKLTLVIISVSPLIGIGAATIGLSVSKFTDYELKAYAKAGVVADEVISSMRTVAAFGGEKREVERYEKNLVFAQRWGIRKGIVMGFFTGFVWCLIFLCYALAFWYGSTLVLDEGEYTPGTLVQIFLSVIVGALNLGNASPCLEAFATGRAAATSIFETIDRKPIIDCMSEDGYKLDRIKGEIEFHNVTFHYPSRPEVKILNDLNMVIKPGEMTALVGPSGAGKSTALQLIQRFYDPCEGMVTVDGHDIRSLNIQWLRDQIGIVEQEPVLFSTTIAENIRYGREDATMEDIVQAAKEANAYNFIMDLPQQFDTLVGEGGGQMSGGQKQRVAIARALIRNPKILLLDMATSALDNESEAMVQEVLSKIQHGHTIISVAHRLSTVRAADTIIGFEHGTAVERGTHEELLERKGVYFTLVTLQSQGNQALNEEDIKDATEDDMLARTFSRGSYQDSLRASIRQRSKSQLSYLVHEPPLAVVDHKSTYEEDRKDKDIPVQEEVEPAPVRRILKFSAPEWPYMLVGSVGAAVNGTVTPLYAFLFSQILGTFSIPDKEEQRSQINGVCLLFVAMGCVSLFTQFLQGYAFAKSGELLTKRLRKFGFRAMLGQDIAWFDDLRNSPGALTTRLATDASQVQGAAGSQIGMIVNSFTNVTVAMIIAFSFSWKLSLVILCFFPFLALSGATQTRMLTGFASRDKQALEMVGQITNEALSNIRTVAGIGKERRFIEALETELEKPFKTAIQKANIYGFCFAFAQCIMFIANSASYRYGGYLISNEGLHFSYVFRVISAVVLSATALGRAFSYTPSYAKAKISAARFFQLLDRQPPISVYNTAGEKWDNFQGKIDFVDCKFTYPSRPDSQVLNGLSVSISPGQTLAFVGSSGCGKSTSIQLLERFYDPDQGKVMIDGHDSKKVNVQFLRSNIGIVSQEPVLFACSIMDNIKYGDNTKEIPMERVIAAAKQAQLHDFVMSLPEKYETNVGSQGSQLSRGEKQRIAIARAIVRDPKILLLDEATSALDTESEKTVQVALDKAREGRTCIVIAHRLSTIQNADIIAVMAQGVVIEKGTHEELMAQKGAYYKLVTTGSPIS

For `CCn1c(C#CCNc2ccccc2)cc2cc(CNC3CCN(C)CC3)ccc21` [Compound 1, 1-Anilino-3-{1-ethyl-5-[(1-methyl-4-piperidylamino)methyl]-1H-indol-2-yl}-2-propyne], the “BSEP Inhibition Potential Classification” value is listed as “Negative (Percent inhibition <50%: Negative)”. Also, under “1 μM TCA, AMP negative control”, the “TCA Concentration, Cofactor AMP, AVG” value was determined as 1.97 nM and the “TCA Concentration, Cofactor AMP, R1” value worked out at 1.50 nM. Moreover, under setting [1], the “TCA Concentration, Cofactor ATP, AVG” value was 85.5 nM and the “TCA Concentration, Cofactor ATP, R1” value worked out at 87. nM. Further, the “BSEP Inhibition Classification” value (TCA 1 μM) is recorded as “negative”. The “Percent Inhibition” value (negative values reported as 0) came out at 0%.
